Reference: US9394250B2, “Substituted pyrrolidines as factor xia inhibitors for the treatment thromboembolic diseases” (ONO PHARMACEUTICAL CO., LTD., priority 2012, dated 2016)
Where a name gives a salt, the structure may show the parent alone.

Columns and labels:
Type in all cases: biochemical
human thrombin = human thrombin (Homo sapiens (Human), UniProt P00734); test: Thrombin enzyme activity, chromogenic substrate S-2366; conditions: human thrombin 0.12 U/mL, 300 μM S-2366, pH7.4; read-out: In vitro Thrombin inhibitory activity IC50
Description: (§1) Inhibitory activities of compounds of the present invention against factor XIa, Xa, XIIa, IXa, VIIa, plasma kallikrein or thrombin were evaluated using appropriate purified proteases and synthetic substrates. The rate of hydrolysis of the chromogenic substrate by the relevant protease was continuously measured at 405 nm. Inhibitory activity against each enzyme was calculated as % inhibition using the equation described below. % Inhibition=[[(rate without compound)−(rate with compound)]/(rate without compound)]×100%. Each half maximal inhibitory concentration (IC50) value was determined by plotting the concentration of compound of the invention against the % inhibition. (1-1) Factor XIa Enzyme Activity
(§2) Human Factor Xa (American Diagnostica Inc.) and human thrombin (Sigma) activities were measured at the enzyme concentrations of 0.18 U/mL and 0.12 U/mL, respectively in the same buffer containing 150 mM NaCl, 2 mg/mL PEG6000, 50 mM Tris-HCl (pH7.4), except that the reactions were started with 300 μM S-2222 ([…], Chromogenix) and 300 μM S-2366, respectively.

Human Factor Xa = Human Factor Xa (Homo sapiens (Human), UniProt P00742); test: Factor Xa enzyme activity, chromogenic substrate S-2222; conditions: human Factor Xa 0.18 U/mL, 300 μM S-2222, pH7.4; read-out: In vitro FXa inhibitory activity IC50
Description: as §1, §2

Human Factor XIa = Human Factor XIa (Homo sapiens (Human), UniProt P03951); test: Factor XIa enzyme activity, chromogenic substrate S-2366; conditions: purified human Factor XIa 0.1 U/mL, 300 μM S-2366, pH7.4; read-out: In vitro FXIa inhibitory activity IC50
Description: as §1
Human Factor XIa (Haematologic Technologies Inc.) activity was measured at an enzyme concentration of 0.1 U/mL in 150 mM NaCl, 5 mM KCl, 1 mg/mL PEG6000, 50 mM HEPES-NaOH (pH7.4) with 300 μM S-2366 (pyroGlu-Pro-Arg-pNA, Chromogenix).

Human Factor XIa, sequence (P03951 388-625): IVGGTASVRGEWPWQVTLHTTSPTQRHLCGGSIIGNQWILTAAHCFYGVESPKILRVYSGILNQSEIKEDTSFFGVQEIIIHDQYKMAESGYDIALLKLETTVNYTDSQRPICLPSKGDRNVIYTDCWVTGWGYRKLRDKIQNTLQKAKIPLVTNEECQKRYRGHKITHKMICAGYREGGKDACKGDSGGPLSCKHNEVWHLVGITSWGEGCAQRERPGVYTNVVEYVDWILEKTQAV
Human Factor XIa, sequence (P03951 19-387 partner): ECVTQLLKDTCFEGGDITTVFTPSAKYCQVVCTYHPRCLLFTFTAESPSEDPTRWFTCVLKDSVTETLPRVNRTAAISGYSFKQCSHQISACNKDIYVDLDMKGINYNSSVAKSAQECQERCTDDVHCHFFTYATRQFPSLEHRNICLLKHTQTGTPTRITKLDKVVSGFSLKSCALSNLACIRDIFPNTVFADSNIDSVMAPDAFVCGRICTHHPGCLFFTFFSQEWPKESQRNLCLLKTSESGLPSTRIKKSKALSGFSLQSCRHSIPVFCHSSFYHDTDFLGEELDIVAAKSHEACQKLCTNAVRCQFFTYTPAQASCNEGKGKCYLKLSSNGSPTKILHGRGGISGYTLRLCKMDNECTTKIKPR
Human Factor Xa, sequence (P00742 235-488): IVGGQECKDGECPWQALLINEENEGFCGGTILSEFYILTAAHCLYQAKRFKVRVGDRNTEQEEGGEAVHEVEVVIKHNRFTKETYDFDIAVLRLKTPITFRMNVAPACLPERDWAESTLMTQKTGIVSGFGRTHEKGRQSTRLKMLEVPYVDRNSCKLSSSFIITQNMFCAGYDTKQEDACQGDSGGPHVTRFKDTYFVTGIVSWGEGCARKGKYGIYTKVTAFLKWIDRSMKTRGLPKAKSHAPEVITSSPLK
Human Factor Xa, sequence (P00742 41-179 partner): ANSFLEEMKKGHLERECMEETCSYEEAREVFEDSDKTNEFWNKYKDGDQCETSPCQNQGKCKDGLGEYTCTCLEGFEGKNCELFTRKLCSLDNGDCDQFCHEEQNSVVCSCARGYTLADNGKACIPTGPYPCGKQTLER

COC(=O)Nc1ccc(-c2[nH]c([C@@H]3C[C@H](N4CCN(S(C)(=O)=O)CC4)CN3C(=O)C3CCN(C(=N)N)CC3)nc2Cl)cc1 [Example 99, methyl [4-(2-{(2S,4S)-1-(1-carbamimidoyl-4-piperidinyl)carbonyl]-4-[4-(methylsulfonyl)-1-piperazinyl-2-pyrrolidinyl}-4-chloro-1H-imidazol-5-yl)phenyl]carbamate trihydrochloride]
IC50 (human thrombin): 84 µM
IC50 (Human Factor Xa): > 100 µM
IC50 (Human Factor XIa): 0.0012 µM
